Measured values published in patent US20160033528A1, “Methods for Selecting Peptides that Bind to Disease Specific Antibodies, Disease Specific Peptides and Uses Thereof” (The Regents of the University of California, priority 2014, published 2016).

Columns and labels:
[1] = system: serum IgA of patients with CD; conditions: cited from earlier work
[2] = system: CD patient IgG antibodies; experiment: Individual clone reactivity with individual patient sera by flow cytometry (second-generation PEQ peptides); assay type: binding, human; conditions: CD case sera n=18 not used for screening
Protocol: Depletion of E. coli binding serum antibodies. Diluted sera were depleted of E. coli binding antibodies prior to library screening and clone reactivity assays. To remove E. coli binding antibodies, an overnight culture of cells expressing the library scaffold (eCPX) with or without the v114 peptide were diluted (1:50) in fresh media and grown separately until the optical density at 600 nm (OD600) was ˜0.6. Cells were induced for 1 hr at 37° C., and then 2×10^9 cells from each culture were combined and centrifuged at 3000 ref for 5 min. Cells were resuspended in PBS-T (1 mL) containing 100× diluted pooled or individual sera. Samples were incubated overnight at 4° C. on an orbital shaker at 20 rpm. After incubation, samples were centrifuged at 3000 ref for 5 min (2×), and the depleted serum supernatant was recovered and stored at 4° C. for up to three days before use.
For flow cytometric analysis and sorting, induced cells corresponding to 5× the estimated remaining clonal diversity were incubated with 1:100-1:200 dilution of pooled sera for 45 min at 4° C. followed by centrifugation and removal of unbound supernatant (3× washing). The pellet was then resuspended in the respective 1:500 biotinylated goat anti-human secondary antibody (IgA/IgG/IgM) in 1× PBST at 4° C. for 45 min followed by centrifugation and removal of unbound supernatant (2× washing). For tertiary labeling, the pellet resuspended in 15 nM SA-PE in 1× PBST at 4° C. for 45 min, followed by another wash via centrifugation and resuspension (3× washing) in ice-cold PBST at a volume between 10^7 and 10^8 cells/mL. Resuspended cells were analyzed using a FACSAria cell sorter (Becton Dickinson) using 488-nm excitation. After sorting, retained cells were amplified for further rounds of sorting by overnight growth and plated to isolate single clones. […]
In vitro evolution of CD specific peptides. […] To assess the diagnostic sensitivity and specificity of individual peptides, the reactivities of one representative clone from each motif group was measured using CD case (n=18) and non-CD control sera (n=5) not used for screening. […]

anti-CSE antibodies = experiment: CSE reactivity in matched CD sera at diagnosis and after one year of gluten-free diet; assay type: binding, human; conditions: 11 CD cases
From the text: Active CD patients (n=54) ranging in age from 18-74 had small intestinal biopsies with a Marsh 3a-3c histological lesion, tested seropositive for transglutaminase (TG2) and endomysium (EMA) autoantibodies, and were Caucasian. Human lymphocyte antigens (HLA)-typing for the presence of DQ2 or DQ8 alleles was available for 42/54 CD sera.
Directed evolution pooled clone & individual patient single clone reactivity assays. To compare the reactivity of consensus epitopes from each generation, overnight cultures of individual clones within a consensus epitope family (4-5 clones/family) were diluted (1:50) in fresh media and grown until the OD600 was between 0.5 and 0.7. Cultures of each individual Clones were induced for 45 min, and 10^6 cells from each culture were pooled together. Pooled consensus epitope families were assayed for binding to case and control group sera (3 subjects/group) by flow cytometry. […] Cells expressing the eCPX scaffold without a peptide insert were used as a negative (background) control. […]
To determine prevalence of anti-CSE antibodies in CD and control subjects, CD and non-CD sera (n=231) were assessed for reactivity to the CSE peptide: MDVRCRDSFVYQCHVGT (SEQ ID NO: 2). […]

Sequence: VVKGGSSSLGW [celiac peptide, synthetic peptide of Giovanna et al., PLOS Med. 2006]
- individual patients with CD whose serum IgA specifically recognized the peptide [1]: 68%

Sequence: VWDRGVPEQMFPRKG [PEQxFP motif derived peptide, focused library 1]
- CD sera the peptide reacted with (reactive/tested) [2]: 18/18

Sequence: GQGQAFPEQGSVPIN [A/VFPEQ motif peptide, focused library 1]
- CD sera the peptide reacted with (reactive/tested) [2]: 14/18

Sequence: MDVRCRDSFVYQCHVGT [CSE peptide]
- patients with reduced, but non-zero, levels of epitope reactivity after a GFD (anti-CSE antibodies; after one year on a gluten-free diet): 8/11
- active CD patients reactive (anti-CSE antibodies; sera at time-of-diagnosis): 10/11

Sequence: VAWTMGPEQPLVRAL [PEQPL motif peptide, focused library 1]
- CD sera the peptide reacted with (reactive/tested) [2]: 11/18
